The values below come from patent US7807701B2, “Dibenzylamine compounds and pharmaceutical use thereof” (Japan Tobacco Inc., priority 2002, dated 2010).

Structures can show the parent of a compound that is named as a salt.

For the assay, the target named is T1, CETP (Homo sapiens, UniProt P11597).
T1 construct: The donor lipoprotein obtained above was added to plasma of healthy subject; from tissue; host or cells: whole plasma of healthy subject
T1 sequence (P11597 18-493): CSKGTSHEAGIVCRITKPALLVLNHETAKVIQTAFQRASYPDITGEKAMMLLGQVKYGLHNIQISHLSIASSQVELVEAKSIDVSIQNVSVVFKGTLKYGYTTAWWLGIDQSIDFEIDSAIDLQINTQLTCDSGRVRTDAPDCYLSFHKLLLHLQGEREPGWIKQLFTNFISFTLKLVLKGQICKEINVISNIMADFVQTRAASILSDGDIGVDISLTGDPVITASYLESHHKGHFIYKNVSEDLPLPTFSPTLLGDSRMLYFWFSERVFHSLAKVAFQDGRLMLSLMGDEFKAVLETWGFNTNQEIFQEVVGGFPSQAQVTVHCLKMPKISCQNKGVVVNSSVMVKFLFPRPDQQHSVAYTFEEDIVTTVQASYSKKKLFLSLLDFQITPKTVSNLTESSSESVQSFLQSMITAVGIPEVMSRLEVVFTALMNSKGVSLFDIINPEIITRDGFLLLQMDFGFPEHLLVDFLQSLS
Kind of assay: Inhibitory effect in vitro on CETP activity in total plasma. It counts as biochemical. The settings on record: plasma of healthy subject with [3H]CE-HDL3, 37° C., 4 hr; average values. Here is the method:
Potassium bromide (KBr) was added to plasma (40 mL) of healthy subject and the mixture was adjusted to have a specific density d=1.125 g/mL. The mixture was subjected to density gradient centrifugation (227,000×g, 4° C., 17 hr) and a fraction showing a specific density of d>1.125 g/mL (HDL3 fraction) was harvested. The obtained fraction was dialyzed against PBS solution [10 mmol/L Na2HPO4; 10 mmol/L NaH2PO4; 0.15 mol/L NaCl; […] (pH 7.4)]. Then, tritium-labeled cholesterol (37 MBq) was dissolved in 95% ethanol, gradually added to the above-mentioned HDL3 fraction with stirring and incubated at 37° C. for 18 hr. [By this operation, tritium-labeled cholesterol was esterified by the action of lecithin acyl transferase (LCAT) present on the HDL3 surface and taken up into HDL3 as tritium-labeled cholesteryl ester ([^3H]CE)]. After incubation, KBr was added, the mixture was adjusted to have a specific density d=1.21 g/mL, subjected to density gradient centrifugation (227,000×g, 4° C., 17 hr) and a fraction of specific density […] was harvested. The obtained fraction was dialyzed against the aforementioned PBS solution to give HDL3 incorporating [^3H]CE ([^3H]CE-HDL3, specific density: 1.125<d<1.21, specific activity: 10,000 dpm/μL), which was used as a donor lipoprotein.
The donor lipoprotein obtained above was added to plasma of healthy subject to prepare a [^3H]CE-HDL3-containing plasma (1,000 dpm/μL). The compound was dissolved in dimethyl formamide. A solution of the compound or a solvent alone (2 μL) and the [^3H]CE-HDL3-containing plasma (100 μL) were added into a microtube, and this was incubated at 37° C. or 4° C. for 4 hr. After ice-cooling, TBS solution [100 μL, 20 mmol/L Tris; 0.15 mol/L NaCl (pH 7.4)] containing 1 mol/L magnesium chloride and 2% dextran sulfate was added to each microtube and the mixture was thoroughly stirred. After keeping at 4° C. for 30 min, the mixture was centrifuged (10,000×g, 4° C., 10 min), and the radioactivity in the obtained supernatant (HDL fraction) was measured with a scintillation counter. […] The concentration of the compound necessary for inhibiting the CETP activity by 50% was calculated as an IC50 value.
Take `CCN(C[C@H]1CC[C@H](C(=O)O)CC1)c1cc2c(cc1CN(Cc1cc(C(F)(F)F)cc(C(F)(F)F)c1)c1ncn(C)n1)CCCC2` [Example 69, trans-4-{[N-(3-{[N′-[3,5-bis(trifluoromethyl)benzyl]-N′-(1-methyl-1H-[1,2,4]triazol-3-yl)amino]methyl}-5,6,7,8-tetrahydronaphthalen-2-yl)-N-ethylamino]methyl}cyclohexanecarboxylic acid hydrochloride]: the half-maximal inhibitory concentration (IC50) worked out at 340 nM.

As for `CCN(C[C@H]1CC[C@H](C(=O)O)CC1)c1cc2c(cc1CN(Cc1cc(C(F)(F)F)cc(C(F)(F)F)c1)c1nnn(CC)n1)CCCC2` [Example 99, trans-4-{[N-(3-{[N′-[3,5-bis(trifluoromethyl)benzyl]-N′-(2-ethyl-2H-tetrazol-5-yl)amino]methyl}-5,6,7,8-tetrahydronaphthalen-2-yl)-N-ethylamino]methyl}cyclohexanecarboxylic acid hydrochloride], it took 530 nM to reach half-maximal inhibition (IC50).

With `CCN(CCCCC(=O)OC)c1cc2c(cc1CN(Cc1cc(C#N)cc(C(F)(F)F)c1)c1ccn(C)n1)CCCC2` [Example 64, methyl 5-[N-(3-{[N′-(3-cyano-5-trifluoromethylbenzyl)-N′-(1-methyl-1H-pyrazol-3-yl)amino]methyl}-5,6,7,8-tetrahydronaphthalen-2-yl)-N-ethylamino]pentanoate hydrochloride], half-maximal inhibition (IC50) required 750 nM.

`CCN(C[C@H]1CC[C@H](C(=O)O)CC1)c1ccc(OC(F)(F)F)cc1CN(Cc1cc(Cl)cc(Cl)c1)c1nnn(C)n1` [Example 129, trans-4-{[N-(2-{[N′-(3,5-dichlorobenzyl)-N′-(2-methyl-2H-tetrazol-5-yl)amino]methyl}-4-trifluoromethoxyphenyl)-N-ethylamino]methyl}cyclohexanecarboxylic acid hydrochloride] gave a half-inhibitory concentration (IC50) of 610 nM.

As for `CC(C)CN(C[C@H]1CC[C@H](C(=O)O)CC1)c1ccc(OC(F)(F)F)cc1CN(Cc1cc(C(F)(F)F)cc(C(F)(F)F)c1)c1nnn(C)n1` [Example 122, trans-4-{[N-(2-{[N′-[3,5-bis(trifluoromethyl)benzyl]-N′-(2-methyl-2H-tetrazol-5-yl)amino]methyl}-4-trifluoromethoxyphenyl)-N-isobutylamino]methyl}cyclohexanecarboxylic acid hydrochloride], the IC50 was 240 nM.

For the molecule `CCN(CCCCC(=O)OC)c1cc2c(cc1CN(Cc1cc(C(F)(F)F)cc(C(F)(F)F)c1)c1ccn(C)n1)CCCC2` [Example 63, methyl 5-[N-(3-{[N′-[3,5-bis(trifluoromethyl)benzyl]-N′-(1-methyl-1H-pyrazol-3-yl)amino]methyl}-5,6,7,8-tetrahydronaphthalen-2-yl)-N-ethylamino]pentanoate hydrochloride], it took 640 nM to reach half-maximal inhibition (IC50).

The molecule `CCN(CC1CCCC1)c1cc2c(cc1CN(Cc1cc(C(F)(F)F)cc(C(F)(F)F)c1)c1nnn(C)n1)CCCC2` [Example 1, N-[3-(N′-cyclopentylmethyl-N′-ethylamino)-5,6,7,8-tetrahydronaphthalen-2-ylmethyl]-N-[3,5-bis(trifluoromethyl)benzyl]-(2-methyl-2H-tetrazol-5-yl)amine] displayed a concentration for half-maximal inhibition (IC50) of 230 nM.

In the case of `CCN(CC1CCCC1)c1cc2c(cc1CN(Cc1cc(C#N)cc(C(F)(F)F)c1)c1nnn(C)n1)CCC2` [Example 10, 3-{[N-[6-(N′-cyclopentylmethyl-N′-ethylamino)indan-5-ylmethyl]-N-(2-methyl-2H-tetrazol-5-yl)amino]methyl}-5-trifluoromethylbenzonitrile], the IC50 came out at 230 nM.

On to `CCN(CCC(C)(C)CC(=O)O)c1cc2c(cc1CN(Cc1cc(C(F)(F)F)cc(C(F)(F)F)c1)c1noc(C)n1)CCC2` [Example 103, 5-[N-(6-{[N′-[3,5-bis(trifluoromethyl)benzyl]-N′-(5-methyl-[1,2,4]oxadiazol-3-yl)amino]methyl}indan-5-yl)-N-ethylamino]-3,3-dimethylpentanoic acid hydrochloride], for which the half-inhibitory concentration (IC50) turned out to be 430 nM.

In turn, `CCN(CCCCC(=O)O)c1cc2c(cc1CN(Cc1cc(C(F)(F)F)cc(C(F)(F)F)c1)c1noc(C)n1)CCC2` [Example 8, 5-{N-(6-{[N′-[3,5-bis(trifluoromethyl)benzyl]-N′-(5-methyl-[1,2,4]oxadiazol-3-yl)amino]methyl}indan-5-yl)-N-ethylamino}pentanoic acid hydrochloride] showed a half-inhibitory concentration (IC50) of 630 nM.

Consider `CCN(C[C@H]1CC[C@H](CO)CC1)c1ccc(OC(F)(F)F)cc1CN(Cc1cc(C(F)(F)F)cc(C(F)(F)F)c1)c1nnn(C)n1` [Example 119, trans-(4-{[N-(2-{[N′-[3,5-bis(trifluoromethyl)benzyl]-N′-(2-methyl-2H-tetrazol-5-yl)amino]methyl}-4-trifluoromethoxyphenyl)-N-ethylamino]methyl}cyclohexyl)methanol hydrochloride], for which half-maximal inhibition (IC50) required 130 nM.

As to `CCN(CC1CCCC1)c1cc2c(cc1CN(Cc1cc(C(F)(F)F)cc(C(F)(F)F)c1)c1cc(C)no1)CCC2` [Example 26, N-[3,5-bis(trifluoromethyl)benzyl]-N-[6-(N′-cyclopentylmethyl-N′-ethylamino)indan-5-ylmethyl]-(3-methylisoxazol-5-yl)amine hydrochloride], half-maximal inhibition (IC50) was put at 470 nM.

Regarding `CCN(CC1CCCC1)c1ccc(C(F)(F)F)cc1CN(Cc1cc(C(F)(F)F)cc(C(F)(F)F)c1)c1nnn(C)n1` [Example 33, N-[3,5-bis(trifluoromethyl)benzyl]-N-[2-(N′-cyclopentylmethyl-N′-ethylamino)-5-trifluoromethylbenzyl]-(2-methyl-2H-tetrazol-5-yl)amine hydrochloride], 560 nM corresponded to half-maximal inhibition (IC50).

`CCN(C[C@H]1CC[C@H](C(=O)O)CC1)c1cc2c(cc1CN(Cc1cc(C(F)(F)F)cc(C(F)(F)F)c1)c1ncn(C)n1)CCC2` [Example 59, trans-4-{[N-(6-{[N′-[3,5-bis(trifluoromethyl)benzyl]-N′-(1-methyl-1H-[1,2,4]triazol-3-yl)amino]methyl}indan-5-yl)-N-ethylamino]methyl}cyclohexanecarboxylic acid hydrochloride] displayed a half-maximal inhibitory concentration (IC50) of 430 nM.

As to `CCN(C[C@H]1CC[C@H](C(=O)O)CC1)c1cc2c(cc1CN(Cc1cc(C(F)(F)F)cc(C(F)(F)F)c1)c1cc(C)no1)CCC2` [Example 53, trans-4-{[N-(6-{[N′-[3,5-bis(trifluoromethyl)benzyl]-N′-(3-methylisoxazol-5-yl)amino]methyl}indan-5-yl)-N-ethylamino]methyl}cyclohexanecarboxylic acid hydrochloride], 700 nM corresponded to half-maximal inhibition (IC50).

The molecule `CCN(C[C@H]1CC[C@H](CC(N)=O)CC1)c1cc2c(cc1CN(Cc1cc(C(F)(F)F)cc(C(F)(F)F)c1)c1nnn(C)n1)OC(F)(F)C(F)(F)O2` [Example 138, trans-2-(4-{[N-(7-{[N′-[3,5-bis(trifluoromethyl)benzyl]-N′-(2-methyl-2H-tetrazol-5-yl)amino]methyl}-2,2,3,3-tetrafluoro-2,3-dihydrobenzo[1,4]dioxin-6-yl)-N-ethylamino]methyl}cyclohexyl)acetamide hydrochloride] registered a half-inhibitory concentration (IC50) of 160 nM.

For the molecule `CCN(C[C@H]1CC[C@H](C(=O)O)CC1)c1ccc(OC(F)(F)F)cc1CN(Cc1cc(C(F)(F)F)cc(C(F)(F)F)c1)c1ccc(C)cc1` [Example 127, trans-4-{[N-(2-{[N′-[3,5-bis(trifluoromethyl)benzyl]-N′-(p-tolyl)amino]methyl}-4-trifluoromethoxyphenyl)-N-ethylamino]methyl}cyclohexanecarboxylic acid hydrochloride], half-maximal inhibition (IC50) required 370 nM.

A word on the IC50: it is the point on the concentration scale where inhibition reaches its midpoint. A higher IC50 goes with weaker potency.
